Read-outs that look alike come from different tables or passages of the source.
Tests used:
Assay in all cases: Kinase profile (33P ATP filter binding)
Assay type in all cases: biochemical
NEK2a = molecular target: T1, NEK2a (Homo sapiens, UniProt P51955); conditions: read-out: Remaining protein kinase activity
T1 sequence (P51955 1-445): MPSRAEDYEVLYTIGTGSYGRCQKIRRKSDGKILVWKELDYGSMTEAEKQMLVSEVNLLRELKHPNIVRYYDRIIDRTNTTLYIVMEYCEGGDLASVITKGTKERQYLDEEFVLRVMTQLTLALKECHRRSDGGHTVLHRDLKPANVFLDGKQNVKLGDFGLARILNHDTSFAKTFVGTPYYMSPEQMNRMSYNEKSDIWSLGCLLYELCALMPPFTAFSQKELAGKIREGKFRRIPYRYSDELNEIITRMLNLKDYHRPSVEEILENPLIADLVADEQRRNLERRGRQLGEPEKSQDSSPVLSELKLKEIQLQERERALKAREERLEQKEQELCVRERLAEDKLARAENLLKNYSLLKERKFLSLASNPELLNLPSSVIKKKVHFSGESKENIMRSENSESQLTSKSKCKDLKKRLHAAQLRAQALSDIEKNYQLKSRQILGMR

IRR = IRR (Homo sapiens, UniProt P14616); conditions: read-out: Remaining protein kinase activity
IRR, sequence (P14616 27-1297): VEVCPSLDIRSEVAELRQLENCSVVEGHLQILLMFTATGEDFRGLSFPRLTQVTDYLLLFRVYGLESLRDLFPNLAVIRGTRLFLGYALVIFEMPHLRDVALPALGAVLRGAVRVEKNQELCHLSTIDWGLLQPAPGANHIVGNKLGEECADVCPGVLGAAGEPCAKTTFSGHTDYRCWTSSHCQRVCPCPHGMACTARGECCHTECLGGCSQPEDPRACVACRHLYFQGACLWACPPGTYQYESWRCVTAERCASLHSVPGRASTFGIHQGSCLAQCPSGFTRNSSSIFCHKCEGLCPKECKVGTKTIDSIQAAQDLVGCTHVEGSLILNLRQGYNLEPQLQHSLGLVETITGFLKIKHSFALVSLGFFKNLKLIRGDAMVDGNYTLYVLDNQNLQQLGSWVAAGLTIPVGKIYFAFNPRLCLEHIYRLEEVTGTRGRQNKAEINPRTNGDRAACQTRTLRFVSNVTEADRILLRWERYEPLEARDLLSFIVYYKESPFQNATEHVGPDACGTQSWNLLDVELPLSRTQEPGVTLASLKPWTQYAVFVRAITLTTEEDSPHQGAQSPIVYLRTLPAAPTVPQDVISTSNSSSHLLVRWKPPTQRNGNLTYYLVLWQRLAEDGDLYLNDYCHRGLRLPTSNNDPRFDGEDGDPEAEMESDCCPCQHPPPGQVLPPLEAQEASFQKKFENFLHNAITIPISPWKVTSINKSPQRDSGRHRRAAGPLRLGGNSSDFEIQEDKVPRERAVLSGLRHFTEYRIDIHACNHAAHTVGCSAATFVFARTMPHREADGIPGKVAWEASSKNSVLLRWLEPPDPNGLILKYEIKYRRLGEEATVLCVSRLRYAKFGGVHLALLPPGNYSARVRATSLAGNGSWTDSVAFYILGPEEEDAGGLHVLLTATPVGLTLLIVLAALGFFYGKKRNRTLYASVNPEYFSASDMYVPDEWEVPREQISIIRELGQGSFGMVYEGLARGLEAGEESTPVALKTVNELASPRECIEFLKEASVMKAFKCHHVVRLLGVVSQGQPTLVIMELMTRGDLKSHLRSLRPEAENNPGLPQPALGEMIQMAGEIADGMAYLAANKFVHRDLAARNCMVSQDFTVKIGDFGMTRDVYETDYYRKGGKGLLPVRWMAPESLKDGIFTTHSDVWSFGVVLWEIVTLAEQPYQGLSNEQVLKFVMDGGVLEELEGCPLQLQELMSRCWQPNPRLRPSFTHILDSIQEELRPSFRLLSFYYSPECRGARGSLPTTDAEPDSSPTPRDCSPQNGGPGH

EIF2AK3 = molecular target: T2, EIF2AK3 (Homo sapiens, UniProt Q9NZJ5); conditions: read-out: Remaining protein kinase activity
T2 sequence (Q9NZJ5 30-1116): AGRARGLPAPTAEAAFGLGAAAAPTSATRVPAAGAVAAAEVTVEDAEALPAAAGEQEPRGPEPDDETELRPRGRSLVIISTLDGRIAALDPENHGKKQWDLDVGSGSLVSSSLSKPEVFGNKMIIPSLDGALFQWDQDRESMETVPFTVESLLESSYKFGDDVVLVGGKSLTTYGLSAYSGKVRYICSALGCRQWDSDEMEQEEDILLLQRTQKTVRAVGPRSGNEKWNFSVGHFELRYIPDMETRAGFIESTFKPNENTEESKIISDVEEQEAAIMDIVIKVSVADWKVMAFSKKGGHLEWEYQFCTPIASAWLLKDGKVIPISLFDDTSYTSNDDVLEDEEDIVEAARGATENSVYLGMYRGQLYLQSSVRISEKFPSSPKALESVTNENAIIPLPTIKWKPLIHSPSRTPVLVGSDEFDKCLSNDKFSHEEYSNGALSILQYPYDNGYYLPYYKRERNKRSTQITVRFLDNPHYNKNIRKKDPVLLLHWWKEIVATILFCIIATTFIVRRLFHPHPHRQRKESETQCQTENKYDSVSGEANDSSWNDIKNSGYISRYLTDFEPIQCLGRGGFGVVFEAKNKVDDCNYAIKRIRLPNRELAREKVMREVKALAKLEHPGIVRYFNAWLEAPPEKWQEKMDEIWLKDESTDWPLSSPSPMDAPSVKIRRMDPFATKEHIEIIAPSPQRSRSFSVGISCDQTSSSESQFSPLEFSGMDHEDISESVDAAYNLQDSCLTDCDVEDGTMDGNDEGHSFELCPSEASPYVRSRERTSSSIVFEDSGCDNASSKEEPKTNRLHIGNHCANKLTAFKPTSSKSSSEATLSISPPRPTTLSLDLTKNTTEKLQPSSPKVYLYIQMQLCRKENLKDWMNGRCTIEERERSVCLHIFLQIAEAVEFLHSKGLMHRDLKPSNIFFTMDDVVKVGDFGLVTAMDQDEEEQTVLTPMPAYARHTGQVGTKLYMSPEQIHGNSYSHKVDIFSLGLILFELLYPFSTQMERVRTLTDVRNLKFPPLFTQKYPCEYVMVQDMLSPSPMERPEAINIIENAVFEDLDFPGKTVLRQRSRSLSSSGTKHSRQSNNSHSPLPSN

PDGFRA = PDGFRA (Homo sapiens, UniProt P16234); conditions: read-out: Remaining protein kinase activity
PDGFRA, sequence (P16234 24-1089): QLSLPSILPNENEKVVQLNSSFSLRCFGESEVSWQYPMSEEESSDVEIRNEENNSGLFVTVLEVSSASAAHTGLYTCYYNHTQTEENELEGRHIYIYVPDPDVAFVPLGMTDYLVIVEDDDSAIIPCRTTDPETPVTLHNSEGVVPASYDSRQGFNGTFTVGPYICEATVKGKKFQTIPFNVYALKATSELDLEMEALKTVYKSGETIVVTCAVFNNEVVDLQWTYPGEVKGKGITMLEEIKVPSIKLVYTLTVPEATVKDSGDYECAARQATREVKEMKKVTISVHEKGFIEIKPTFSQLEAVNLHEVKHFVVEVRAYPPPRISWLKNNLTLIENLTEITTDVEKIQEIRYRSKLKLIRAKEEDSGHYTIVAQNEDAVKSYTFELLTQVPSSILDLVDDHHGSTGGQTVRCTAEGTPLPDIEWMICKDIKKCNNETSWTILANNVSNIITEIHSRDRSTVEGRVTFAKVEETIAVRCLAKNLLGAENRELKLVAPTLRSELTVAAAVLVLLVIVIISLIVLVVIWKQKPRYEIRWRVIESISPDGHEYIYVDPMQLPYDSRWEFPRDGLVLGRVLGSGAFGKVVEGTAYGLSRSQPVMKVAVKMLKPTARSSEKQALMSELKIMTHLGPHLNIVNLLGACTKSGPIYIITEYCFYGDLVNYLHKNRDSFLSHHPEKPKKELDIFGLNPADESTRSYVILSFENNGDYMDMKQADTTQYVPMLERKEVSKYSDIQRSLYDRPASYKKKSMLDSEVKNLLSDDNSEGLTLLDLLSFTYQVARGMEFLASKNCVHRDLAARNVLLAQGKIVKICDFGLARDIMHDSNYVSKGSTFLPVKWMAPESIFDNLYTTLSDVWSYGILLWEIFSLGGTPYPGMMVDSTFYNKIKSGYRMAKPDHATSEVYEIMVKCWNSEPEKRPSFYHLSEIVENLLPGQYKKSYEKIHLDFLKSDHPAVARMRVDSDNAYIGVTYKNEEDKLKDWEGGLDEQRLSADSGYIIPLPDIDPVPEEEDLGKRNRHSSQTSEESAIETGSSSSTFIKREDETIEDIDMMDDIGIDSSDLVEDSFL

JNK3 = JNK3 (Homo sapiens, UniProt P53779)
JNK3, sequence (P53779 whole entry, species assumed): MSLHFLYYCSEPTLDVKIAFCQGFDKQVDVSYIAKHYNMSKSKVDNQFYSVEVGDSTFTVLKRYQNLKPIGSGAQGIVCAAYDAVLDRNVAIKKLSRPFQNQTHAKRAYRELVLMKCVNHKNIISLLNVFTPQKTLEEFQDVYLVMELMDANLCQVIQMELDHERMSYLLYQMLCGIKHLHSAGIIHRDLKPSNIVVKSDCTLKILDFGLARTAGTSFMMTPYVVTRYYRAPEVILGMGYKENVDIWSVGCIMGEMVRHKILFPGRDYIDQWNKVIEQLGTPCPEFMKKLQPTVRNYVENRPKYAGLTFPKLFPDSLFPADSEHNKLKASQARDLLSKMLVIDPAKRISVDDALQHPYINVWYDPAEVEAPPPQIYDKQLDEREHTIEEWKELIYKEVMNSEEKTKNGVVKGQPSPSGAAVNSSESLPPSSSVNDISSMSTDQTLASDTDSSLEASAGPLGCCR

Row | Structure (SMILES) | remaining activity at 1 µM (NEK2a) | remaining activity at 1 µM (IRR) | remaining activity at 100 µM (IRR) | remaining activity at 1 µM (EIF2AK3) | remaining activity at 100 µM (EIF2AK3) | remaining activity at 1 µM (PDGFRA) | remaining activity at 100 µM (PDGFRA) | Remaining protein kinase activity (JNK3; 1 μM) | Remaining protein kinase activity (JNK3; 100 μM) | remaining activity at 1 µM (NEK2a; NEK2a, 1 μM) | remaining activity at 100 µM (NEK2a; NEK2a, 100 μM) | remaining activity at 1 µM (IRR; IRR, 1 μM) | remaining activity at 100 µM (IRR; IRR, 100 μM) | remaining activity at 1 µM (EIF2AK3; EIF2AK3, 1 μM) | remaining activity at 100 µM (EIF2AK3; EIF2AK3, 100 μM) | remaining activity at 1 µM (PDGFRA; PDGFRA, 1 μM) | remaining activity at 100 µM (PDGFRA; PDGFRA, 100 μM)
1 | COc1ccc2sc(-c3cncc(NC(C)=O)c3)nc2c1 [PST-001, N-(5-(5-Methoxybenzo[d]thiazol-2-yl)pyridin-3-yl)acetamide] | 119% | 117% | 120% | 123% | 118% | 100% | 73% | 127% | 122% | – | – | – | – | – | – | – | –
2 | COc1ccc2sc(-c3cncc(N)c3)nc2c1 [compound 1, 5-(5-Methoxybenzo[d]thiazol-2-yl)pyridin-3-amine] | – | – | – | – | – | – | – | 125% | 61% | 111% | 51% | 113% | 77% | 122% | 84% | 101% | 26%

Source: PMC8617627, “Novel DYRK1A Inhibitor Rescues Learning and Memory Deficits in a Mouse Model of Down Syndrome” (Pharmaceuticals, 2021)
